The text below walks through data of patent publication US10632100B2, “Application of obacunone in preparation of drug for preventing and treating lung damage and pulmonary fibrosis” (GUANGDONG PROVINCIAL HOSPITAL OF TRADITIONAL CHINESE …, priority 2016, dated 2020).

The subject of data set [1] is human colon cancer cells (SW480). As to conditions: cited from earlier work.
Data set [2] concerns human pancreatic cancer cells (Panc-28). As to conditions: by activating p53; cited from earlier work.
A further data set has as its system arginase. As to conditions: reciprocally increasing NO production; cited from earlier work.
Data set [3] concerns α-smooth muscle actin (α-SMA). In words: α-SMA expression in bleomycin-induced pulmonary fibrosis (immunohistochemistry staining). Type of data set: in vivo, C57BL/6 mice. As to conditions: after administration of obacunone, compared to the bleomycin group, FIG. 3. From the text:
(§1) Eighteen C57BL/6 mice, aged 8 weeks, each weighing 18 to 22 g, were provided by the Laboratory Animal Center of Guangzhou University of Chinese Medicine (Certificate No. 44007200023897).
In pulmonary fibrosis TGF-β induced lung interstitial fibroblasts to transform into myofibroblasts, of which the marker is the expression of α-smooth muscle actin (α-SMA). Therefore, in this experiment the effect of obacunone on the expression of α-SMA in lung myofibroblasts was investigated to provide experimental support for the use of obacunone in treatment and prevention of pulmonary fibrosis.
Steps of immunohistochemistry staining are as follows:
1) placing and baking paraffin wax sections in an electrothermal thermostat oven at 60° C. for 30 min;
2) dewaxing the sections with xylene (8 min for each of I and II), hydrating them with decreasing concentrations of ethanol (8 min for each concentration), and washing with water;
3) performing antigen retrieval, and washing the sections with PBS (3 times×3 min);
4) adding Solution A (S-P kit) dropwise, blocking at room temperature for 10 min, and washing the sections with PBS (3 times×3 min);
5) adding Solution B (S-P kit) dropwise, blocking at room temperature for 10 min, and blotting extra liquid;
6) adding a primary antibody dropwise, placing the sections in a wet box overnight at 4° C., and washing the sections with PBS (3 times×3 min); […]

Data set [4] deals with bleomycin-induced lung injury and pulmonary fibrosis. In words: Inhibition of bleomycin-induced lung injury and pulmonary fibrosis in vivo (HE and Masson staining of lung tissue). The arrangement: species or system C57BL/6 mice. Conditions: 10 mg/kg obacunone intraperitoneally 48 hours before each bleomycin injection, lung tissue 7 days after last bleomycin, vs bleomycin group. As for the experimental part:
as §1
Bleomycin was intraperitoneally injected into 8-week old B6 mice at a dose of 2 mg/mouse, once per week, three times in total. 48 hours before each injection with bleomycin, corn oil or 10 mg/kg obacunone was intraperitoneally injected into B6 mice in advance. 7 days after the last injection with bleomycin, lung tissue was isolated, fixed, sectioned, HE-stained (see Experiment 8 for details), and Masson-stained.

Another data set deals with liver and kidney of mice. In words: Damage caused by obacunone to liver and kidney of mice (HE staining). Type of data set: in vivo, C57BL/6 mice. Conditions: 10 mg/kg obacunone, twice a week, 6 times in total; tissues 7 days after last injection; FIG. 4. As for the experimental part: as §1
8-week aged B6 mice were injected with corn oil or 10 mg/kg obacunone, twice a week, 6 times in total. 7 days after the last injection, liver and kidney tissues were isolated, fixed, sectioned, and HE-stained (FIG. 4), as described below.
HE (Hematoxylin-eosin) staining: the paraffin wax samples were continuously sectioned with the semi-automated rotary microtome, with a thickness of 3.5 μm; for staining, the sections were baked and dried for 20 min, rinsed with xylene (2 times×10 min), with anhydrous ethanol (2 times×2 min), with 95% ethanol for 1 min, with 80% ethanol for 1 min, with 70% ethanol for 1 min, washed with water for 1 min, then stained with hematoxylin for 8 min, […], washed with water (2 times×1 min), with 0.5% HCl-ethanol for 10 sec, washed with water for 10 min, stained with eosin for 2 min, washed with water for 1 min, with 80% ethanol for 5 sec, with 85% ethanol for 5 sec, with 90% ethanol for 5 sec, with 95% ethanol for 1 min, with anhydrous ethanol (2 times×2 min), with anhydrous ethanol for 3 min, and with xylene (2 times×2 min), and then the staining was completed and the sections were directly mounted with neutral gum.

Data set [5] has as its system cytokines IL-6, TGF-β, IL-17, IFN-γ and MCP-1. In words: Bleomycin-induced expression of inflammatory factors in lung tissue (qPCR). As to conditions: BLM+obacunone injection group vs BLM injection group, FIG. 2. Type of data set: in vivo, C57BL/6 mice. On the procedure:
as §1
The mRNA levels of cytokines IL-6, TGF-β, IL-17, IFN-γ and MCP-1 were analyzed by qPCR. *P<0.05, **P<0.01 indicated significant differences between the BLM injection group and the normal group; ^# P<0.05, ^## P<0.01 indicated significant differences between the BLM injection group and the BLM+obacunone injection group.
(In general: In qPCR the cycle at which signal appears reflects the starting amount.)

Structures are written as SMILES.

For the molecule `CC1(C)OC(=O)C=C[C@]2(C)[C@H]3CC[C@@]4(C)[C@H](c5ccoc5)OC(=O)[C@H]5O[C@]54[C@]3(C)C(=O)C[C@@H]12` [Obacunone], the “apoptosis of SW480 cells” value in data set [1] (by activating cytochrome C) was “induced cell apoptosis”. Also, the “growth of tumor cells (SW480)” value in data set [1] (by activating p21 to arrest the cell cycle at phases G2/M and G1) was “suppressed growth of tumor cells”. Moreover, in data set [2], the “apoptosis of Panc-28 tumor cells” value is “induced apoptosis of tumor cells”. For the same molecule, in the data set with arginase, the activity of arginase entry is “inhibiting activity of arginase”. Besides, the “expression of α-SMA in lung tissue” value in data set [3] is reported as “significantly reduced”. Besides, the “HE staining of lung tissue: pathological changes (alveolar shrinkage, inflammatory cell infiltration, wall thickening, bullae, interstitial proliferation)” value in data set [4] (FIG. 1A) was “significant improvement of the above pathological changes”. In addition, the “Masson staining of lung tissue: precipitation of stroma (collagen, fibronectin)” value in data set [4] (FIG. 1B) was “significant improvement of the above pathological changes”. Further, the “effect on liver and kidney (HE-stained sections)” value with liver and kidney of mice was “did not apparently affect the liver and kidney of mice”. The “mRNA levels of cytokines IL-6, TGF-β, IL-17, IFN-γ and MCP-1 in lung tissue” value in data set [5] is given as “repaired these bleomycin-induced changes to a great extent”.
